Measured values from ChEMBL document CHEMBL1128638, “Probing the hydrophobic pocket of the active site of aromatase with 4-phenoxy-7 alpha-(phenylthio)-4-androstene-3,17-dione” (J Med Chem, 1995).

Target: T1, Aromatase (Homo sapiens, UniProt P11511)
T1 sequence (P11511 whole entry): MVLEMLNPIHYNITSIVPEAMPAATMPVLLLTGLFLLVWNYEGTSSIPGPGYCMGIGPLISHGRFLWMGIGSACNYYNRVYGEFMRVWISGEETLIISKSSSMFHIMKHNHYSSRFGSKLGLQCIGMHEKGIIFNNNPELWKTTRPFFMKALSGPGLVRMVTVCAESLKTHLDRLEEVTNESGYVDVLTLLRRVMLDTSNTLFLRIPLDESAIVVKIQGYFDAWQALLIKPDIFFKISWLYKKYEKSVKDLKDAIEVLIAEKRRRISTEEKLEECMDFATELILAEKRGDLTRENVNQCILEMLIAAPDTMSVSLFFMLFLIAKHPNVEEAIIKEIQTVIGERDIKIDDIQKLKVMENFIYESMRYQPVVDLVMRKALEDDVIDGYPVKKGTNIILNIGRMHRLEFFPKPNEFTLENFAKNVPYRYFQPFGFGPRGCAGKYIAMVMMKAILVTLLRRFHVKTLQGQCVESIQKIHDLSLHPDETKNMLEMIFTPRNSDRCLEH
Test: Inhibition of Cytochrome P450 19A1

Structure (SMILES) | IC50 [nM]
C[C@]12CCC(=O)C=C1C[C@@H](Sc1ccccc1)[C@@H]1[C@@H]2CC[C@]2(C)C(=O)CC[C@@H]12 | 650
CC12CCC3C(CCC4=C(Oc5ccccc5)C(=O)CCC43C)C1CCC2=O (centres undefined) | 530
CC12CCC3C(C1CCC2=O)[C@H](Sc1ccccc1)CC1=C(Oc2ccccc2)C(=O)CCC13C (some centres undefined) | 1650
CC12CCC3C(CCC4=C(Sc5ccccc5)C(=O)CCC43C)C1CCC2=O (centres undefined) | 190
